Molecules are shown by their SMILES.

The assay addresses T1, angiotensin II receptor (rabbit aortic rings) (Oryctolagus cuniculus, UniProt P34976).
T1 construct: The thoracic aorta was removed, cleaned of adherent fat and connective tissue and then cut into 3-mm ring segments; from tissue; host or cells: rabbit thoracic aorta rings, endothelium removed
T1 sequence (P34976 1-359): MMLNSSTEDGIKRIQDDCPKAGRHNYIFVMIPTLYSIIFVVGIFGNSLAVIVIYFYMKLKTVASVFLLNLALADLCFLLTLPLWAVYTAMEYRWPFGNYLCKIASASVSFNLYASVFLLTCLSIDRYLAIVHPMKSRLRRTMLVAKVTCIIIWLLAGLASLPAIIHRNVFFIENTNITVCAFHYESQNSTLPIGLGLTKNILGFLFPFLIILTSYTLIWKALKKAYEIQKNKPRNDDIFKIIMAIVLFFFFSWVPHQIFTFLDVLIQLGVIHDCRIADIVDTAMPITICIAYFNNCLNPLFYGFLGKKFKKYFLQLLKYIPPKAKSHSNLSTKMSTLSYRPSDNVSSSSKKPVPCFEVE
The assay can be described thus: Assay B: In vitro Vascular Smooth Muscle Response for AII (rabbit aortic rings, pA2). It counts as cell-based. The following applies: two determinations given as a/b. How it is done: Assay B: In vitro Vascular Smooth Muscle-response for AII
The compounds of the invention were tested for antagonist activity in rabbit aortic rings. Male New Zealand white rabbits (2-2.5 kg) were sacrificed using an overdose of pentobarbital and exsanguinated via the carotid arteries. The thoracic aorta was removed, cleaned of adherent fat and connective tissue and then cut into 3-mm ring segments. The endothelium was removed from the rings by gently sliding a rolled-up piece of filter paper into the vessel lumen. The rings were then mounted in a water-jacketed tissue bath, maintained at 37° C., between moveable and fixed ends of a stainless steel wire with the moveable end attached to an FT03 Grass transducer coupled to a Model 7D Grass Polygraph for recording isometric force responses. […] The preparations were equilibrated for one hour before approximately one gram of passive tension was placed on the rings. Angiotensin II concentration-response curves were then recorded (3×10^−10 to 1×10^−5 M). Each concentration of AII was allowed to elicit its maximal contraction, and then AII was washed out repeatedly for 30 minutes before rechallenging with a higher concentration of AII. Aorta rings were exposed to the test antagonist at 10^−5 M for 5 minutes before challenging with AII. Adjacent segments of the same aorta ring were used for all concentration-response curves in the presence or absence of the test antagonist. The effectiveness of the test compound was expressed in terms of pA2 values and were calculated according to H. O. Schild [Br. J. Pharmacol. Chemother., 2, 189-206 (1947)]. The pA2 value is […] which increases the EC50 value for AII by a factor of two. Each test antagonist was evaluated in aorta rings from two rabbits.
2Assay B: In vitro Vascular Smooth Muscle Response
`CCCCc1ncn(Cc2ccc(-c3ccccc3-c3nnn[nH]3)cc2)n1` [Compound 54] showed a Kb of 955 nM.

Regarding `CCCCc1nc(CCCC2CCCCC2)n(Cc2ccc(-c3ccccc3-c3nnn[nH]3)cc2)n1` [Compound 57], the Kb was 1000 nM.

Compound `CCCCc1nc(C)n(Cc2ccc(-c3ccccc3C(=O)O)cc2)n1` [Compound 77] showed a Kb of 1700 nM.

`CCCCc1nn(CCCC)c(=O)n1Cc1ccc(-c2ccccc2C(=O)O)cc1` [Compound 78]: the Kb was 100 nM.

On to `CCCCc1nn(CC(=O)C23CC4CC(CC(C4)C2)C3)c(=O)n1Cc1ccc(-c2ccccc2-c2nn[nH]n2)cc1` [Compound 80], for which the Kb was 7.94 nM.

Consider `CCCCc1nn(CCCc2ccccc2)c(=O)n1Cc1ccc(-c2ccccc2-c2nn[nH]n2)cc1` [Compound 81], for which the Kb is 10 nM.

In the case of `CCCCc1nn(CC(O)c2ccccc2)c(=O)n1Cc1ccc(-c2ccccc2-c2nn[nH]n2)cc1` (stereo not shown) [Compound 83], the Kb was 5.01 nM.

`CCCCc1nn(CC(=O)OC(C)(C)C)c(=O)n1Cc1ccc(-c2ccccc2-c2nn[nH]n2)cc1` [Compound 84] had a Kb of 79.4 nM.

Compound `CCCCCCn1nc(CCCC)n(Cc2ccc(-c3ccccc3-c3nn[nH]n3)cc2)c1=O` [Compound 85] gave a Kb of 1.26 nM.

In turn, `CCCCc1nn(CC(=O)OCC)c(=O)n1Cc1ccc(-c2ccccc2-c2nn[nH]n2)cc1` [Compound 86] had a Kb of 15.8 nM.

`CCCCc1nn(CC(=O)O)c(=O)n1Cc1ccc(-c2ccccc2-c2nn[nH]n2)cc1` [Compound 87] gave a Kb of 15.8 nM.

With `CCCCc1nn(CCC2CCCCC2)c(=O)n1Cc1ccc(-c2ccccc2-c2nn[nH]n2)cc1` [Compound 89], the Kb was 12.6 nM.

`CCCCCn1nc(CCCC)n(Cc2ccc(-c3ccccc3-c3nn[nH]n3)cc2)c1=O` [Compound 90]: the Kb was 1 nM.

In turn, `CCCCc1nn(CC(OCC(=O)O)c2ccccc2)c(=O)n1Cc1ccc(-c2ccccc2-c2nn[nH]n2)cc1` (stereo not shown) [Compound 91] gave an antagonist dissociation constant (Kb) of 2.51 nM.

The compound `CCCCc1nn(CCC(C)CC(C)(C)C)c(=O)n1Cc1ccc(-c2ccccc2-c2nn[nH]n2)cc1` (stereo not shown) [Compound 92] showed a Kb of 12.6 nM.

`CCCCc1nn(C(=O)CCC)c(=O)n1Cc1ccc(-c2ccccc2-c2nn[nH]n2)cc1` [Compound 95] had a Kb of 6.31 nM.

`CCCCc1nn(CC(=O)c2cc(OC)ccc2OC)c(=O)n1Cc1ccc(-c2ccccc2-c2nn[nH]n2)cc1` [Compound 96]: the Kb was 10 nM.

`CCCCc1nn(CC(OCc2ccccc2)c2ccccc2)c(=O)n1Cc1ccc(-c2ccccc2-c2nn[nH]n2)cc1` (stereo not shown) [Compound 97] gave a Kb of 20 nM.

`CCCCc1nn(CC(O)c2cc(OC)ccc2OC)c(=O)n1Cc1ccc(-c2ccccc2-c2nn[nH]n2)cc1` (stereo not shown) [Compound 98]: the Kb was 7.94 nM.

`CCCCc1nn(Cc2ccc3ccccc3c2)c(=O)n1Cc1ccc(-c2ccccc2-c2nn[nH]n2)cc1` [Compound 99] showed a Kb of 316 nM.

`CCCCc1nn(C(CC(=O)OCC)C(=O)c2ccccc2)c(=O)n1Cc1ccc(-c2ccccc2-c2nn[nH]n2)cc1` (stereo not shown) [Compound 101] showed a Kb of 15.8 nM.

For `CCCCc1nn(C(C)(C)C(=O)c2ccccc2)c(=O)n1Cc1ccc(-c2ccccc2-c2nn[nH]n2)cc1` [Compound 102], the Kb is 20 nM.

On to `CCCCc1nn(CCCCC(=O)O)c(=O)n1Cc1ccc(-c2ccccc2-c2nn[nH]n2)cc1` [Compound 103], for which the Kb is 10 nM.

The compound `CCCCn1nc(C(C#N)CCC)n(Cc2ccc(-c3ccccc3-c3nn[nH]n3)cc2)c1=O` (stereo not shown) [Compound 106] showed a Kb of 20 nM.

`CCCCc1nn(CC(OCC(=O)OCC)c2ccccc2)c(=O)n1Cc1ccc(-c2ccccc2-c2nn[nH]n2)cc1` (stereo not shown) [Compound 107] had a Kb of 5.01 nM.

Turning to `CCCCc1nc2cnncc2n1Cc1ccc(-c2ccccc2C(=O)O)cc1` [Compound 108], the Kb is 5010 nM.

The compound `CCCCc1nc2c(O)nnc(O)c2n1Cc1ccc(-c2ccccc2C(=O)O)cc1` [Compound 109] showed a Kb of 50.1 nM.

`CCCCc1nc2c(Cl)nnc(Cl)c2n1Cc1ccc(-c2ccccc2-c2nnn[nH]2)cc1` [Compound 110] had an antagonist equilibrium constant (Kb) of 398 nM.

Broadly, the Kb is the affinity of an antagonist, worked out from how it opposes an agonist.

The values above are taken from patent US20040067915A1, “Method to treat cardiofibrosis with a combination of an angiotensin II antagonist and spironolactone” (G.D. Searle & Co., priority 1995, published 2004).
